The subject of this assay is SARS-CoV-2. In words: microbe, parasite or virus in culture. Conditions: Severe acute respiratory syndrome coronavirus 2, Vero C1008, 48 h.

Turning to `NCCCNc1ccc2c3c(nn2CCNCCO)-c2c(O)ccc(O)c2C(=O)c13` [PIROXANTRONE], the IC50 was > 20 µM. The IC50 (read-out: pIC50 (converted)) is > 20 µM.
As for `O=C1CCC(c2ccccc2)(C2CCN(C/C=C/c3ccccc3)CC2)C(=O)N1` (stereo not drawn), the IC50 is > 20 µM. Also, the IC50 (read-out: pIC50 (converted)) was > 20 µM.
For the molecule `CN1CCC(=C2c3ccccc3CCn3c(C=O)cnc32)CC1` [ALCAFTADINE], the IC50 is > 20 µM. Moreover, the IC50 (read-out: pIC50 (converted)) was > 20 µM.
`COC(c1ccccc1)(c1ccccc1)[C@H](Oc1nc(C)cc(C)n1)C(=O)O` [AMBRISENTAN]: the IC50 was > 20 µM. In addition, the IC50 (read-out: pIC50 (converted)) is > 20 µM.
With `O=C(O)COc1ccc(C(=O)c2cccs2)c(Cl)c1Cl`, the IC50 is > 20 µM. The IC50 (read-out: pIC50 (converted)) was > 20 µM.
Turning to `CC1CC(OC(=O)c2ccccc2O)CC(C)(C)C1` (stereo not drawn) [HOMOSALATE], the IC50 is > 20 µM. Further, the IC50 (read-out: pIC50 (converted)) was > 20 µM.
Take `O=C(O)c1cc(=O)c2c(OCC(O)COc3cccc4oc(C(=O)O)cc(=O)c34)cccc2o1` [CROMOLYN]: the IC50 was > 20 µM. Where the note is “read-out: pIC50 (converted)”, the IC50 was > 20 µM.
Turning to `Nc1cc(C(F)(F)F)c(-c2nc(N3CCOCC3)nc(N3CCOCC3)n2)cn1` [BIMIRALISIB], the IC50 was > 20 µM. Further, the IC50 (read-out: pIC50 (converted)) was > 20 µM.
In the case of `CCCCCCCCc1ccc(CCC(N)(CO)CO)cc1` [FINGOLIMOD], the IC50 is > 20 µM. Moreover, under “read-out: pIC50 (converted)”, the IC50 was > 20 µM.
For the molecule `CCCCCCCCCCNCCN[C@@]1(C)C[C@H](O[C@H]2[C@H](Oc3c4cc5cc3Oc3ccc(cc3Cl)[C@H](O)[C@@H](NC(=O)[C@@H](CC(C)C)NC)C(=O)N[C@@H](CC(N)=O)C(=O)N[C@H]5C(=O)N[C@@H]3C(=O)N[C@H](C(=O)N[C@H](C(=O)O)c5cc(O)c(CNCP(=O)(O)O)c(O)c5-c5cc3ccc5O)[C@@H](O)c3ccc(c(Cl)c3)O4)O[C@H](CO)[C@@H](O)[C@@H]2O)O[C@@H](C)[C@H]1O`, the IC50 was > 20 µM. For the same molecule, the IC50 (read-out: pIC50 (converted)) is > 20 µM.
For `CNC(=O)c1cc(Oc2ccc(NC(=O)Nc3ccc(Cl)c(C(F)(F)F)c3)c(F)c2)ccn1` [REGORAFENIB], the IC50 was > 20 µM. For the same molecule, the IC50 (read-out: pIC50 (converted)) is > 20 µM.
As to `COc1ccc(-c2ccc(=O)n(Cc3ccc(Cl)cc3F)c2)cc1`, the IC50 is > 20 µM. The IC50 (read-out: pIC50 (converted)) was > 20 µM.
For `N#C[C@@H]1CCCN1C(=O)CNC12CC3CC(CC(O)(C3)C1)C2` [VILDAGLIPTIN], the IC50 was > 20 µM. For the same molecule, the IC50 (read-out: pIC50 (converted)) is > 20 µM.
On to `CCc1cn([C@H]2C[C@H](O)[C@@H](CO)O2)c(=O)[nH]c1=O` [EDOXUDINE], for which the IC50 is > 100 µM. Also, the IC50 (read-out: pIC50 (converted)) is > 100 µM.
With `OC[C@H]1O[C@H](O)[C@@H](O)[C@@H](O)[C@@H]1O`, the IC50 was > 20 µM. Further, the IC50 (read-out: pIC50 (converted)) was > 20 µM.
As for `O=c1oc2cc(O)ccc2s1` [TIOXOLONE], the IC50 was > 20 µM. In addition, the IC50 (read-out: pIC50 (converted)) is > 20 µM.
Regarding `CCN(CC)CCOC(=O)C(Cc1cccc2ccccc12)CC1CCCO1` (stereo not drawn) [NAFRONYL], the IC50 was > 20 µM. Further, the IC50 (read-out: pIC50 (converted)) was > 20 µM.
Take `CN1CCN(C2=Cc3cc(Cl)ccc3/C(=C/C#N)c3ccccc32)CC1` [RILAPINE]: the IC50 is > 20 µM. In addition, the IC50 (read-out: pIC50 (converted)) was > 20 µM.
On to `COC(=O)N[C@@H](C(=O)N1CCC[C@@H]1c1ncc(-c2ccc(-c3ccc(-c4cnc([C@H]5CC6(CN5C(=O)[C@H](NC(=O)OC)C(C)C)OCCO6)[nH]4)cc3)cc2)[nH]1)C(C)C`, for which the IC50 was > 20 µM. Besides, for the setting “read-out: pIC50 (converted)”, the IC50 is > 20 µM.
As to `O=C(O)CNC(=O)C1C(=O)N(C2CCCCC2)C(=O)N(C2CCCCC2)C1=O` [DAPRODUSTAT], the IC50 was > 20 µM. Further, the IC50 (read-out: pIC50 (converted)) was > 20 µM.
As to `O=C1CN(/N=C/c2ccc(-c3ccc([N+](=O)[O-])cc3)o2)C(=O)N1` [DANTROLENE], the IC50 was > 20 µM. Also, the IC50 (read-out: pIC50 (converted)) was > 20 µM.
With `CCn1cc(C(=O)O)c(=O)c2cc(F)c(N3CCN(C)CC3)cc21` [PEFLOXACIN], the IC50 is > 20 µM. Further, the IC50 (read-out: pIC50 (converted)) was > 20 µM.
For `CC(=O)O[C@]1(C(C)=O)CC[C@H]2[C@@H]3C=C(C)C4=CC(=O)CC[C@]4(C)[C@H]3CC[C@@]21C` [MEGESTROL ACETATE], the IC50 was > 20 µM. In addition, the IC50 (read-out: pIC50 (converted)) was > 20 µM.
Regarding `CC(C)NCC(O)c1ccc(O)c(NS(C)(=O)=O)c1` (stereo not drawn) [SOTERENOL], the IC50 was > 20 µM. Moreover, the IC50 (read-out: pIC50 (converted)) is > 20 µM.
Regarding `COC(=O)Nc1nc2cc(Sc3ccccc3)ccc2[nH]1` [FENBENDAZOLE], the IC50 was > 20 µM. Also, the IC50 (read-out: pIC50 (converted)) was > 20 µM.
With `O=C(O)c1cc(NC(=O)[C@@H](Cc2ccccc2F)NC(=O)c2cc3[nH]cnc3cc2C(=O)NCC2CCCCCC2)cc(C(=O)O)c1`, the IC50 was > 20 µM. For the same molecule, where the note is “read-out: pIC50 (converted)”, the IC50 is > 20 µM.
Turning to `CC(C)(C)NCC(O)c1ccccc1Cl` (stereo not drawn) [TULOBUTEROL], the IC50 was > 20 µM. Also, the IC50 (read-out: pIC50 (converted)) is > 20 µM.
Consider `Clc1ccc(CCCOCCCN2CCCCC2)cc1` [PITOLISANT], for which the IC50 was > 20 µM. The IC50 (read-out: pIC50 (converted)) is > 20 µM.
As to `CSCC1CN(/N=C/c2ccc([N+](=O)[O-])o2)C(=O)O1` (stereo not drawn), the IC50 is > 20 µM. Further, the IC50 (read-out: pIC50 (converted)) is > 20 µM.
As for `C/C1=C/C[C@@H](/C(C)=C/c2csc(C)n2)OC(=O)C[C@H](O)C(C)(C)C(=O)[C@H](C)[C@@H](O)[C@@H](C)CCC1` [EPOTHILONE D], the IC50 is > 20 µM. Moreover, the IC50 (read-out: pIC50 (converted)) was > 20 µM.
Turning to `NCC1O[C@H](O[C@@H]2C(N)C[C@@H](N)C(O[C@H]3OC(CO)[C@@H](O)C(N)C3O)C2O)C(N)C(O)[C@@H]1O` (stereo partly drawn), the IC50 was > 20 µM. The IC50 (read-out: pIC50 (converted)) is > 20 µM.
Consider `O=C(O)CC(O)C(=O)O` (stereo not drawn) [MALIC ACID], for which the IC50 is > 20 µM. The IC50 (read-out: pIC50 (converted)) is > 20 µM.
In the case of `O=c1[nH]c(=O)n([C@H]2C[C@H](O)[C@@H](CO)O2)cc1C(F)(F)F` [TRIFLURIDINE], the IC50 was > 20 µM. Further, for the setting “read-out: pIC50 (converted)”, the IC50 is > 20 µM.
For `N#Cc1ccccc1-c1cc(-c2ccccn2)cn(-c2ccccc2)c1=O`, the IC50 was > 20 µM. Also, the IC50 (read-out: pIC50 (converted)) is > 20 µM.
As to `CCC1(c2ccccc2)C(=O)NC(=O)NC1=O` [PHENOBARBITAL], the IC50 is > 20 µM. Also, the IC50 (read-out: pIC50 (converted)) is > 20 µM.
In the case of `NC(=O)NC(CCC(=O)O)C(=O)O` (stereo not drawn), the IC50 was > 20 µM. Moreover, where the note is “read-out: pIC50 (converted)”, the IC50 is > 20 µM.
For `CCCCN(CCCC)C(C(N)=O)c1ccc(OC)cc1` (stereo not drawn) [AMBUCETAMIDE], the IC50 is > 20 µM. Further, the IC50 (read-out: pIC50 (converted)) is > 20 µM.
In the case of `C[C@]1(C(=O)N(CCCC(=O)O)Cc2cccc(Cl)c2)CCN1C(=O)c1csc2ccccc12` [GLPG-0974], the IC50 is > 20 µM. In addition, the IC50 (read-out: pIC50 (converted)) was > 20 µM.
As to `CC(=O)Oc1cccc(C)c1`, the IC50 was > 20 µM. For the same molecule, the IC50 (read-out: pIC50 (converted)) is > 20 µM.
As for `O=C(CCCl)NCc1ccccc1` [BECLAMIDE], the IC50 is > 20 µM. Besides, where the note is “read-out: pIC50 (converted)”, the IC50 is > 20 µM.
In the case of `Nc1nc(O)c2ncn(CCC(CO)CO)c2n1` [PENCICLOVIR], the IC50 is > 20 µM. The IC50 (read-out: pIC50 (converted)) was > 20 µM.
As for `C=CCNc1nc(NCC=C)nc(N2CCN(C(c3ccc(F)cc3)c3ccc(F)cc3)CC2)n1` [ALMITRINE], the IC50 is > 20 µM. In addition, where the note is “read-out: pIC50 (converted)”, the IC50 was > 20 µM.
Regarding `Nc1ccc(N)cc1`, the IC50 was > 20 µM. Further, the IC50 (read-out: pIC50 (converted)) is > 20 µM.
In the case of `CNC(=O)CN1CCC(Oc2cc3c(Nc4cccc(Cl)c4F)ncnc3cc2OC)CC1` [SAPITINIB], the IC50 was > 20 µM. The IC50 (read-out: pIC50 (converted)) was > 20 µM.

These data come from ChEMBL document CHEMBL4651402, “Screening of ~5500 FDA-approved drugs and clinical candidates for anti-SARS-CoV-2 activity” (2021).
